Patent publication US11744877B2, “Method for permeabilizing tumor vasculature using a tumor vasculature permeabilizing molecule to improve access of a therapeutic or diagnostic agent to a tumor” (OXFORD UNIVERSITY INNOVATION LIMITED, priority 2010, dated 2023)

Assay: Accumulation of intravascularly injected oncolytic adenovirus in EL4 tumours (hexon staining, qPCR of viral DNA)
Format: in vivo, SCID-beige female mice
Details: 1 μg TNF; tumours 100 mm^3; versus vehicle; FIG. 1B
Protocol: All adenoviruses were grown in 293 cells, and purified by double banding in CsCl gradients with Benzonase treatment after the first banding. Viral particle (VP) number was determined by measuring DNA content, using a PicoGreen assay (Invitrogen, Carlsbad, Calif.) (Murakami and McCaman, 1999, Anal Biochem; 274(2):283-8).
EL4 cells (2×10^6) were injected subcutaneously and allowed to form tumours in the left flank of 4- to 6-week-old SCID-beige female mice. Evans Blue was administered intravenously to compare permeability in 1 μg TNFα-treated animals versus controls. Oncolytic adenovirus was injected intravascularly when tumours were 100 mm^3 and relative distribution was assessed by hexon staining and quantitative polymerase chain reaction measurement of viral DNA.
To assess distribution of adenovirus in 1 μg TNF-treated animals versus controls, oncolytic adenovirus was injected intravascularly when tumours were 100 mm^3 and the relative distribution was assessed by hexon staining and quantitative polymerase chain reaction measurement of viral DNA. Three controls were also used.
Virus accumulation in the tumour was compared to that in the liver and in the spleen.

Compound	increase in accumulation (uptake) of intravenously administered adenovirus particles in tumours
COc1cc(/C=C\c2ccc(OC)c(OP(=O)(O)O)c2OP(=O)(O)O)cc(OC)c1OC [combrestatin (OXI4503), combrestatin]	increases were small compared to TNF
Angiotensin II (DRVYIHPF; Angiotensin-2; UniProt P01019 25-32, looked up) [control reported to increase tumour vessel permeability]	increases were small compared to TNF
